# Measurements from article PMC8125234, “Cardiolipin Stabilizes and Increases Catalytic Efficiency of Carnitine Palmitoyltransferase II and Its Variants S113L, P50H, and Y479F” (International Journal of Molecular Sciences, 2021).
# Numbering of substitutions follows the chain as printed.
# Columns and labels:
# [1] = target: T1, CPT II WT (Homo sapiens, UniProt P23786); experiment: nanoDSF protein stability in presence of CL or β-OG; type: binding
# T1 construct: made in house; host or cells: Escherichia coli BL21Gold DE
# T1 sequence (P23786 26-658): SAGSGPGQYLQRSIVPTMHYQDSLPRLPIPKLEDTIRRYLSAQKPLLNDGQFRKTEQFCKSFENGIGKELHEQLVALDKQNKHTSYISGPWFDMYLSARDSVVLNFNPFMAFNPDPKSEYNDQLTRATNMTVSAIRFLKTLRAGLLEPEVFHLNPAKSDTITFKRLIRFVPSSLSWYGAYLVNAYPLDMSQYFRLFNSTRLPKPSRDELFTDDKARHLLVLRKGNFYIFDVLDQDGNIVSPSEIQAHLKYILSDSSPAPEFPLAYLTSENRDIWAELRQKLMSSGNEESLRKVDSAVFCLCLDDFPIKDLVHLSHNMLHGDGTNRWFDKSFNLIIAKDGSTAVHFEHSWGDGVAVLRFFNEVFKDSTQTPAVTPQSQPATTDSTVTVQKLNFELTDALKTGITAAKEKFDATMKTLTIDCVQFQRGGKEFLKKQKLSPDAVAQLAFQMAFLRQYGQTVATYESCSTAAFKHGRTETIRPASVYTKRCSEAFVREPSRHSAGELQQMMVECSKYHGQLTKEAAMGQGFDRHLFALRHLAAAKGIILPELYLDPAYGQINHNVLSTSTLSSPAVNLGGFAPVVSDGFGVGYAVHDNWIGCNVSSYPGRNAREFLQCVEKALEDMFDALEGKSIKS
# Description: (§1) NanoDSF is a standard method for the investigation of the folding/unfolding of proteins and the interaction of proteins with effectors/ligands/substrates
# (§2) The protein stability was investigated applying nano differential scanning fluorimetry (nanoDSF) using a protein concentration of 1 mg/mL in assay buffer. […] The heating rate has been set to 1 °C per min. A heating ramp from 15 to 95 °C was determined. The nanoDSF data were obtained using a Prometheus NT.48 device. First derivatives were calculated using PR.ThermControl software (NanoTemper Technologies GmbH, Munich, Germany). Experiments were performed at least three times independently as double determination.
# [2] = target: T2, CPT II variant P50H (Homo sapiens, UniProt P23786, P50H); experiment: as above; type: binding; details: 1 mg/mL protein
# T2 construct: made in house; host or cells: Escherichia coli BL21Gold DE
# T2 sequence (P23786 26-658 P50H): T1 sequence (P23786 26-658) with P25H
# Description: as §1, §2
# [3] = target: T3, CPT II variant S113L (Homo sapiens, UniProt P23786, S113L); experiment: as above; type: binding
# T3 construct: made in house; host or cells: Escherichia coli BL21Gold DE
# T3 sequence (P23786 26-658 S113L): T1 sequence (P23786 26-658) with S88L
# Description: as §1, §2
# [4] = target: T4, CPT II variant Y479F (Homo sapiens, UniProt P23786, Y479F); experiment: as above; type: binding
# T4 construct: made in house; host or cells: Escherichia coli BL21Gold DE
# T4 sequence (P23786 26-658 Y479F): T1 sequence (P23786 26-658) with Y454F
# Description: as §1, §2
# [5] = target: T2, CPT II variant P50H; experiment: Lipid binding assay (membrane lipid strips); details: 0.4 mg enzyme, 100 pmol lipid spots
# Description: (§3) Direct interaction of CPT II WT and variants with phospholipids of the mitochondrial membrane was assessed using membrane lipid strips (Echelon Biosciences, Salt Lake City, Utah, USA). The membrane was spotted with 100 pmol of various cell membrane lipids. The assay was performed following manufacturer’s instructions with some modifications explained in the following. At first, the membrane was washed twice in phosphate buffered saline (PBS). After 1 h incubation with blocking solution (3% BSA fatty acid-free in PBS) at room temperature, the membrane was incubated with purified CPT II WT or variant (final amount 0.4 mg protein) for 2 h at 4 °C. After three washing steps, a-His-Probe (H3) mouse monoclonal antibody (Santa Cruz Biotech, Santa Cruz, CA, USA, 1:1000 dilution in PBS containing 3% BSA) was added to the membrane over night at 4 °C. The membrane was washed three times with PBS and incubated with mouse IgG horseradish peroxidase-linked whole antibody (from sheep, Amersham, Little Chalfont, Buckinghamshire, UK) for 1 h at 4 °C. The interaction was visualized by ECL Western blotting detection reagents (Amersham, Little Chalfont, Buckinghamshire, UK).
# [6] = target: T3, CPT II variant S113L; experiment: Lipid binding assay (membrane lipid strips); details: 0.4 mg enzyme, 100 pmol lipid spots
# Description: as §3
# [7] = target: T1, CPT II WT; experiment: Lipid binding assay (membrane lipid strips); details: 0.4 mg enzyme, 100 pmol lipid spots
# Description: as §3
# [8] = target: T4, CPT II variant Y479F; experiment: Lipid binding assay (membrane lipid strips); details: 0.4 mg enzyme, 100 pmol lipid spots
# Description: as §3
# [9] = reference TM of WT in buffer (ΔTM = 0 °C)
Molecule,Signal for interaction on membrane lipid strips [5],Signal for interaction on membrane lipid strips [6],Signal for interaction on membrane lipid strips [7],Signal for interaction on membrane lipid strips [8],also measured
"CCCCCCCCO[C@@H]1O[C@H](CO)[C@@H](O)[C@H](O)[C@H]1O [β-OG, n-octyl-β-d-glucopyranoside]",–,–,–,–,"TM in Buffer with 1 % β-OG ([1]; 1 mg/mL protein): 49.9 ± 0.7 °C; ∆TM in Buffer with 1 % β-OG [1, 9]: 13.0 ± 0.7 °C; TM in Buffer with 1 % β-OG [2]: 43.5 ± 0.4 °C; TM in Buffer with 1 % β-OG ([3]; 1 mg/mL protein): 45.3 ± 0.6 °C; ∆TM in Buffer with 1 % β-OG [3, 9]: 8.4 ± 0.6 °C; TM in Buffer with 1 % β-OG ([4]; 1 mg/mL protein): 49.0 ± 0.5 °C; ∆TM in Buffer with 1 % β-OG [4, 9]: 12.1 ± 0.5 °C"
phosphatidylglycerol [PG],lower detection signal,lower detection signal,–,–,–
"phosphatidylinositol (3,4,5)-trisphosphate [PtdIns(3,4,5)P3]",highest signal,highest signal,highest signal,highest signal,–
"phosphatidylinositol (4,5)-bisphosphate [PtdIns(4,5)P2]",highest signal,highest signal,highest signal,highest signal,–
phosphatidylinositol [PI],No signal,interaction with PI was detected,interaction with PI was detected,interaction with PI was detected,–
phosphatidylserine [PS],reduced,–,–,–,–
